In patent US20050282824A1, “Substituted pyrimidines as inhibitors of bacterial type III protein secretion systems” (priority 2004, published 2005) one finds IC50 data, which are given here for 16 compounds.

Holding throughout (format): cell-based
Assay [1] relates to SPI1 type III protein secretion of SopE'-'Bla by Salmonella enterica. The experiment in a line: Primary assay: Type III protein secretion of the chimeric SopE'-'Bla polypeptide by Salmonella enterica. Particulars: read-out: SopE IC50(uM). The text has this: Primary assay: Type III protein secretion of the chimeric SopE′-′Bla polypeptide by Salmonella enterica. This procedure is a cell-based assay that measures the type III-dependent secretion by Salmonella enterica of a plasmid-encoded chimeric polypeptide whose synthesis can be regulated, and which is endowed with an enzymatic activity that can be monitored […] by hydrolysis of a substrate that is unable to penetrate into the bacterial cytoplasm within the time constraints of the reaction. Thus, the colorimetric reaction is not influenced by SopE′-′Bla polypeptide in the bacterial cytoplasm. Instead, it effectively measures the amount of polypeptide that has been secreted from the S. enterica cytoplasm to the extracellular medium via type III system protein secretion.
The SopE′-′Bla recombinant polypeptide consists of two functionally distinct domains spliced together. The N-terminus domain is encoded by a polynucleotide region specifying the signal for type III secretion of the SopE polypeptide of S. enterica, an effector of the SPI1 type III protein secretion system. The C-terminus domain of SopE′-′Bla consists of a 263 amino acid peptide sequence that corresponds to the TEM-1 β-lactamase expressed by plasmid pBR322 but without its N-terminal signal sequence. The TEM-1 β-lactamase part of the SopE′-′Bla chimeric polypeptide is used as a reporter enzyme. It is capable of hydrolyzing nitrocefin resulting in a product whose accumulation can be monitored by colorimetric detection. The secretion of the SopE′-′Bla chimeric polypeptide from the cytoplasm to the extracellular medium is dependent on type III protein secretion.
For this procedure, cells grown under conditions known to favor a functional SPI1 secretion system are induced for expression of the SopE′-′Bla protein and grown either in the presence or in the absence of putative inhibitors for determined time. Nitrocefin is then added to the various cultures and its hydrolysis are used for quantitation. An inhibitor of Type III protein secretion is generally a compound that reduces the signal of the enzymatic reaction by decreasing the amount of SopE′-′Bla secreted into the extracellular medium.

Assay [2] has as its system SPI1 type III protein secretion of SipB by S. enterica. The experiment in a line: Secondary assay: Type III-dependent protein secretion of the SipB polypeptide by S. enterica. Particulars: Salmonella enterica, read-out: SipB IC50(uM). Here is the method:
Secondary assay: Type III-dependent protein secretion of the SipB polypeptide by S. enterica. The SipB protein of S. enterica is another effector of the SPI1 type III protein secretion system from S. enterica. In this cell-based procedure, the Type III-dependent secretion of SipB from the bacterial cytoplasm to the extracellular medium was measured through its reactivity with a cognate mouse monoclonal.
Salmonella enterica cells growing either in the presence or in the absence of inhibitors are induced for the production of SipB. Following an established period of growth the cells are sedimented and the amount of SipB present in the supernatant is quantified with a scanning imager following application of immunoblot techniques. Detection may employ an anti-SipB mouse monoclonal antibody (e.g., obtained from Jorge Galan, SUNY at Stony Brook, N.Y.) followed by treatment with commercially available sheep anti-mouse polyclonal antibody conjugated with horseradish peroxidase. Thereafter the membrane is treated with a peroxidase chemiluminescent substrate and exposed to film for an appropriate exposure time. Inhibition may be measured relative to untreated controls.

Assay [3] deals with Type III protein secretion of ExoU by P. aeruginosa PA103. Nature of the assay: Tertiary assay: Type III-dependent secretion of ExoU by P. aeruginosa PA103. As to conditions: Pseudomonas aeruginosa, read-out: ExoU IC50(uM). From the text: Tertiary assay: inhibition of Type III protein secretion of effectors from a Pseudomonas aeruginosa system. Type III protein secretion is used by P. aeruginosa to secrete several essential virulence determinants. One effector of the type III protein secretion system of P. aeruginosa PA 103 is the virulence determinants ExoU.
The amount of Type III-dependent secretion of ExoU by P. aeruginosa PA103 can be determined in a cell-based assay by quantification of the 73.9 kDa ExoU protein secreted into the extracellular medium. Such quantitation can be achieved by growing strain PA 103 in a deferrated medium in the presence of nitrilotriacetic acid (an inducer of Type III protein secretion in P. aeruginosa) and either in the presence or absence of putative inhibitors. After a prolonged growth period, the cells are sedimented and the supernatants concentrated by ammonium sulfate precipitation. The proteins in the resuspended pellets are separated by electrophoresis on SDS-polyacrylamide gels. After staining gels with Colloidal Blue™, the 73.9 kDa ExoU band is quantitated by scanning through an imager. The effects of inhibitors on the intensity of the ExoU band may be measured relative to that of untreated controls.

Where only a bound is given, the exact number is not on record here.

Take `O=C(NC(Cc1ccc(Cl)cc1)C(=O)O)c1cc(-c2cccc(C(F)(F)F)c2)nc(N2CCN(c3ccccc3)CC2)n1` (stereo in doubt) [Compound 31, (R)-3-(4-Chlorophenyl)-2-{[2-(4-phenyl-piperazin-1-yl)-6-(3-trifluoromethylphenyl)pyrimidine-4-carbonyl]amino}propionic acid]: the figures for the IC50 in assay [1], in assay [2] and in assay [3] were 4.1 µM, 13.3 µM and 88.7 µM, respectively.
Taken in the same sequence, the figures for `Cc1cc(C(=O)NC(Cc2ccc(Cl)cc2)C(=O)O)nc(-c2ccc(-c3ccccc3)cc2)n1` (stereo not drawn) [Compound 1, 2-[(2-Biphenyl-4-yl-6-methyl-pyrimidine-4-carbonyl)amino]-3-(4-chlorophenyl)-propionic acid] were 7.4 µM, 4.4 µM and 83.9 µM.
Regarding `O=C(N[C@@H](CSCc1ccccc1)C(=O)O)c1cc(N2CCCCC2)nc(-c2ccc(-c3ccccc3)cc2)n1` [Compound 3, (R)-3-Benzylsulfanyl-2-[(2-biphenyl-4-yl-6-piperidin-1-yl-pyrimidine-4-carbonyl)-amino]propionic acid], the results for the IC50 in assay [1], in assay [2] and in assay [3] were 4.1 µM, 3 µM and 37.6 µM, respectively.
For `O=C(N[C@H](Cc1ccc(Cl)cc1)C(=O)O)c1cc(N2CCCCC2)nc(N2CCC(c3ccccc3)CC2)n1` [Compound 4, (R)-3-(4-Chlorophenyl)-2-{[2-(4-phenylpiperidin-1-yl)-6-piperidin-1-yl-pyrimidine-4-carbonyl]amino}propionic acid], the figures for the IC50 in assay [1], in assay [2] and in assay [3] were 2 µM, 27 µM and more than 100 µM, respectively.
The matching figures for `CN(C)c1ccc(-c2nc(C(=O)N[C@H](Cc3ccc(Cl)cc3)C(=O)O)cc(N3CCc4ccccc4C3)n2)cc1` [Compound 6, (R)-3-(4-Chlorophenyl)-2-{[6-(3,4-dihydro-1H-isoquinolin-2-yl)-2-(4-dimethylaminophenyl)pyrimidine-4-carbonyl]amino}propionic acid]: 4.5 µM, 50 µM and 68.4 µM.
The matching figures for `O=C(N[C@H](COCc1ccccc1)C(=O)O)c1cc(N2CCC(c3ccccc3)CC2)nc(-c2ccc(Cl)c(Cl)c2)n1` [Compound 11, (R)-3-Benzyloxy-2-{[2-(3,4-dichlorophenyl)-6-(4-phenylpiperidin-1-yl)-pyrimidine-4-carbonyl]amino}propionic acid]: 1.4 µM, 44.2 µM and 92.2 µM.
Taken in the same sequence, the figures for `O=C(N[C@H](Cc1ccc(Cl)cc1)C(=O)O)c1cc(N2CCC(c3ccccc3)CC2)nc(-c2cccc(C(F)(F)F)c2)n1` [Compound 12, (R)-3-(4-Chlorophenyl)-2-{[6-(4-phenylpiperidin-1-yl)-2-(3-trifluoromethyl-phenyl)pyrimidine-4-carbonyl]amino}propionic acid] were 1.4 µM, 28.1 µM and more than 100 µM.
In the case of `O=C(N[C@H](Cc1ccc(Cl)cc1)C(=O)O)c1cc(N2CCCc3ccccc32)nc(-c2cccc(C(F)(F)F)c2)n1` [Compound 13, (R)-3-(4-Chlorophenyl)-2-{[6-(3,4-dihydro-2H-quinolin-1-yl)-2-(3-trifluoromethyl-phenyl)pyrimidine-4-carbonyl]amino}propionic acid], the IC50 (in general, the concentration at which inhibition is half-maximal) is 1.3 µM in assay [1], 19.4 µM in assay [2] and more than 100 µM in assay [3].
Taken in the same sequence, the figures for `CN(C)c1ccc(-c2nc(C(=O)N[C@H](Cc3ccc(Cl)cc3)C(=O)O)cc(N3CCC(c4ccccc4)CC3)n2)cc1` [Compound 14, (R)-3-(4-Chlorophenyl)-2-{[2-(4-dimethylaminophenyl)-6-(4-phenylpiperidin-1-yl)pyrimidine-4-carbonyl]amino}propionic acid] were 1.8 µM, 27.6 µM and more than 100 µM.
Turning to `O=C(N[C@H](Cc1ccc(Cl)cc1)C(=O)O)c1cc(N2CCC(c3ccccc3)CC2)nc(-c2ccc(C(F)(F)F)cc2)n1` [Compound 15, (R)-3-(4-Chlorophenyl)-2-{[6-(4-phenylpiperidin-1-yl)-2-(4-trifluoromethylphenyl)-pyrimidine-4-carbonyl]amino}propionic acid], the IC50 in assay [1] was found to be 3.6 µM; in assay [2], 8.5 µM; in assay [3], 68.1 µM.
The matching figures for `O=C(N[C@H](Cc1ccc(Cl)cc1)C(=O)O)c1cc(N2CCCc3ccccc32)nc(-c2ccc(Oc3ccccc3)cc2)n1` [Compound 16, (R)-3-(4-Chlorophenyl)-2-{[6-(3,4-dihydro-2H-quinolin-1-yl)-2-(4-phenoxy-phenyl)pyrimidine-4-carbonyl]amino}propionic acid]: 6.2 µM, 10.2 µM and 62.2 µM.
`O=C(N[C@@H](CSCc1ccccc1)C(=O)O)c1cc(N2CCC(c3ccc(F)cc3)CC2)nc(-c2ccc(Cl)c(Cl)c2)n1` [Compound 17, (R)-3-Benzylsulfanyl-2-({2-(3,4-dichlorophenyl)-6-[4-(4-fluorophenyl)piperidin-1-yl]pyrimidine-4-carbonyl}amino)propionic acid]: the results for the IC50 in assay [1], in assay [2] and in assay [3] were 1.6 µM, 23 µM and more than 100 µM, respectively.
The matching figures for `O=C(N[C@@H](CSCc1ccccc1)C(=O)O)c1cc(N2CCC(c3ccccc3)CC2)nc(-c2ccc(F)c(F)c2)n1` [Compound 18, (R)-3-Benzylsulfanyl-2-{[2-(3,4-difluorophenyl)-6-(4-phenylpiperidin-1-yl)-pyrimidine-4-carbonyl]amino}propionic acid]: 19 µM, 16.8 µM and 46.6 µM.
Taken in the same sequence, the figures for `O=C(N[C@@H](CSCc1ccccc1)C(=O)O)c1cc(N2CCN(c3ccccc3)CC2)nc(-c2ccc(F)c(F)c2)n1` [Compound 19, (R)-3-Benzylsulfanyl-2-{[2-(3,4-difluorophenyl)-6-(4-phenyl-piperazin-1-yl)-pyrimidine-4-carbonyl]amino}propionic acid] were 6.4 µM, 8 µM and 67.8 µM.
With `O=C(N[C@@H](CSCc1ccccc1)C(=O)O)c1cc(N2CCC(c3ccccc3)CC2)nc(-c2ccc(C(F)(F)F)cc2)n1` [Compound 21, (R)-3-Benzylsulfanyl-2-{[6-(4-phenylpiperidin-1-yl)-2-(4-trifluoromethylphenyl)-pyrimidine-4-carbonyl]amino}propionic acid], the IC50 in assay [1] was 3.6 µM; in assay [2] it was 24.8 µM; in assay [3], 39 µM.
On to `O=C(N[C@@H](CSCc1ccccc1)C(=O)O)c1cc(N2CCC(c3ccc(F)cc3)CC2)nc(-c2ccc(C(F)(F)F)cc2)n1` [Compound 22, (R)-3-Benzylsulfanyl-2-{[6-[4-(4-fluorophenyl)piperidin-1-yl]-2-(4-trifluoromethylphenyl)pyrimidine-4-carbonyl]amino}propionic acid], for which the IC50 in assay [1] was 1.8 µM; in assay [2], more than 100 µM; in assay [3] it was 52.6 µM.
